# What was measured:
# Caco-2 cells [1] = assay: TPC assay (total protein content), 72 h exposure; assay type: cell-based, human; settings: Caco-2, TPC
# Caco-2 cells [2] = assay: LDH leakage assay (membrane integrity), 72 h exposure; assay type: cell-based, human; settings: Caco-2, LDH
# solubility in water = assay type: physicochemical; settings: qualitative statement
# Caco-2 cells [3] = assay: NRU assay (lysosomal activity), 72 h exposure; assay type: cell-based, human; settings: Caco-2, NRU
# Balb/c 3T3 cells [4] = assay: MTT assay (mitochondrial activity), 72 h exposure; assay type: cell-based, murine
# Description: The human hepatoma (HepG2) and colorectal adenocarcinoma (Caco-2) cells were purchased from the American Type Culture Collection: ATCC HB-8065 and ATCC HTB-37, respectively. These cells were cultured in Minimum Essential Medium Eagle (MEME) (ATCC). The murine fibroblasts cell line (Balb/c 3T3 clone A31) (gift from the Department of Swine Diseases of the National Veterinary Research Institute in Pulawy) was cultured in Dulbecco’s Modified Eagle Medium (DMEM) (ATCC). The media were supplemented with 10% BCS (Balb/c 3T3), 10% FBS (HepG2), 20% FBS (Caco-2), 1% L-glutamine, 1% antibiotic solution. The cells were maintained in 75 cm^2 cell culture flasks (NUNC) in a humidified incubator at 37 °C in an atmosphere of 5% CO2. The medium was refreshed every two or three days, and the cells were trypsinized by 0.25% trypsin–0.02% EDTA after reaching 70–80% confluence. Single cell suspensions were prepared and adjusted to a density of 2 × 10^5 cell/mL^−1 (HepG2), 1 × 10^5 cell/mL^−1 (Caco-2) and 5 × 10^4 cell/mL^−1 (Balb/c 3T3). The cell suspension was transferred to 96-well plates (100 µL/well) and incubated for 24 h before the exposure to the studied compounds. Stock solutions of ligands and metal complexes were prepared in sterile water and diluted with culture medium to obtain a concentration range from 0.1 to 10 µM. The final concentration of sterile water was 0.1% in the medium. […] As a negative control, cultured cells were grown in the absence of studied compounds. Each concentration was tested in six replicates in three independent experiments. Cytotoxicity was assessed after 72 h of exposure of the cells to compounds. The medium was not changed during the incubation time.
# The metabolic activity of living cells was assessed by the measurement of the activity of dehydrogenases. […] The plate was shaken for 15 min at room temperature and transferred to a microplate reader Synergy HTX multi-mode reader (BioTek® Instruments Inc., Winooski, VT, USA) to measure the absorbance at 570 nm, using a blank as a reference. Cytotoxicity was expressed as a percentage of the negative control. […]
# [5] = test system: reference aerobic and anaerobic microorganisms (ATCC); assay: micro-dilution broth method, whole panel of reference strains; assay type: cell-based; settings: against the majority of tested bacterial strains
# S. aureus biofilm = assay: qualitative antibiofilm activity, confocal laser scanning microscope (CLSM); settings: 500 mg/L, 24 h exposure
# P. mirabilis ATCC 12453 = assay: micro-dilution broth method (MIC, MBC); assay type: cell-based, Proteus mirabilis
# Balb/c 3T3 cells [6] = assay: cytotoxicity, MTT, NRU, TPC and LDH assays taken together, 72 h; assay type: cell-based, murine; settings: non-cancer Balb/c 3T3 cells, range over MTT, TPC, LDH
# Description: The human hepatoma (HepG2) and colorectal adenocarcinoma (Caco-2) cells were purchased from the American Type Culture Collection: ATCC HB-8065 and ATCC HTB-37, respectively. These cells were cultured in Minimum Essential Medium Eagle (MEME) (ATCC). The murine fibroblasts cell line (Balb/c 3T3 clone A31) (gift from the Department of Swine Diseases of the National Veterinary Research Institute in Pulawy) was cultured in Dulbecco’s Modified Eagle Medium (DMEM) (ATCC). The media were supplemented with 10% BCS (Balb/c 3T3), 10% FBS (HepG2), 20% FBS (Caco-2), 1% L-glutamine, 1% antibiotic solution. […] Cytotoxicity was assessed after 72 h of exposure of the cells to compounds. […]
# The metabolic activity of living cells was assessed by the measurement of the activity of dehydrogenases. […] The plate was shaken for 15 min at room temperature and transferred to a microplate reader Synergy HTX multi-mode reader (BioTek® Instruments Inc., Winooski, VT, USA) to measure the absorbance at 570 nm, using a blank as a reference. Cytotoxicity was expressed as a percentage of the negative control.
# This method is based on staining living cells with neutral red, which readily diffuses through the plasma membrane and accumulates in lysosomes. […] Cytotoxicity was expressed as a percentage of the negative control. […]
# [7] = P. mirabilis ATCC 12453, value in brackets
compound,measurement,setting,value
Cc1ncc([N+](=O)[O-])n1CCO.Cc1ncc([N+](=O)[O-])n1CCO.Cc1ncc([N+](=O)[O-])n1CCO.Cc1ncc([N+](=O)[O-])n1CCO.O=S(=O)([O-])[O-].[Ag+].[Ag+] [[Ag(MTZ)2]2SO4],lowest concentration with decreased total protein content,Caco-2 cells [1]; Figure 6,5.0 µM
same,lowest concentration with significant (p ≤ 0.05) disintegration of cellular membranes,Caco-2 cells [2]; Figure 6,0.5 µM
same,solubility in water,solubility in water,more soluble in water in comparison to Ag2SO4
same,lowest concentration with inhibition of lysosomal activity,Caco-2 cells [3]; Figure 6,1.0 µM
same,lowest concentration with significant (p ≤ 0.05) effect,"Balb/c 3T3 cells [4]; Balb/c 3T3, MTT, Figure 6",5.0 µM
same,"minimal inhibition concentration (MIC), range",[5],0.24 to 250 µg/mL
same,"effect on biofilm (CLSM, qualitative)",S. aureus biofilm,significantly reduced biofilm density
"Cc1ncc([N+](=O)[O-])n1CCO [MTZ, 2-Methyl-5-nitroimidazole-1-ethanol]",IC50,"Caco-2 cells [1]; Homo sapiens, mean ± SD, n = 3",> 10 µM
same,IC50,"Caco-2 cells [2]; Homo sapiens, mean ± SD, n = 3",> 10 µM
same,IC50,"Caco-2 cells [3]; Homo sapiens, mean ± SD, n = 3",> 10 µM
same,IC50,"Balb/c 3T3 cells [4]; Mus musculus, BALB/c3T3, Balb/c 3T3, MTT, mean ± SD, n = 3",> 10 µM
"O=[N+]([O-])[O-].[Ag+] [AgNO3, Silver nitrate]",MBC,P. mirabilis ATCC 12453; P. mirabilis ATCC 12453,15.6 mg/L
same,MIC,P. mirabilis ATCC 12453; P. mirabilis ATCC 12453,7.8 mg/L
same,MBC,P. mirabilis ATCC 12453; [7],0.09 µM/mL
same,MIC,P. mirabilis ATCC 12453; [7],0.049 µM/mL
"O=S(=O)([O-])[O-].[Ag+].[Ag+] [Ag2SO4, silver sulfate]",IC50,Balb/c 3T3 cells [6],1.92 to 2.57 µM
same,MBC,P. mirabilis ATCC 12453; P. mirabilis ATCC 12453,31.3 mg/L
same,MIC,P. mirabilis ATCC 12453; P. mirabilis ATCC 12453,31.3 mg/L
same,MBC,P. mirabilis ATCC 12453; [7],0.1 µM/mL
same,MIC,P. mirabilis ATCC 12453; [7],0.1 µM/mL

# Source: PMC8869984, “Multifunctional Silver(I) Complexes with Metronidazole Drug Reveal Antimicrobial Properties and Antitumor Activity against Human Hepatoma and Colorectal Adenocarcinoma Cells” (Cancers, 2022)
